Holding throughout (assay type): cell-based
For one assay, the target named is T1, human TLR9 (Homo sapiens, UniProt Q9NR96).
T1 construct: host or cells: HEK-Blue cells
T1 sequence (Q9NR96 26-1032): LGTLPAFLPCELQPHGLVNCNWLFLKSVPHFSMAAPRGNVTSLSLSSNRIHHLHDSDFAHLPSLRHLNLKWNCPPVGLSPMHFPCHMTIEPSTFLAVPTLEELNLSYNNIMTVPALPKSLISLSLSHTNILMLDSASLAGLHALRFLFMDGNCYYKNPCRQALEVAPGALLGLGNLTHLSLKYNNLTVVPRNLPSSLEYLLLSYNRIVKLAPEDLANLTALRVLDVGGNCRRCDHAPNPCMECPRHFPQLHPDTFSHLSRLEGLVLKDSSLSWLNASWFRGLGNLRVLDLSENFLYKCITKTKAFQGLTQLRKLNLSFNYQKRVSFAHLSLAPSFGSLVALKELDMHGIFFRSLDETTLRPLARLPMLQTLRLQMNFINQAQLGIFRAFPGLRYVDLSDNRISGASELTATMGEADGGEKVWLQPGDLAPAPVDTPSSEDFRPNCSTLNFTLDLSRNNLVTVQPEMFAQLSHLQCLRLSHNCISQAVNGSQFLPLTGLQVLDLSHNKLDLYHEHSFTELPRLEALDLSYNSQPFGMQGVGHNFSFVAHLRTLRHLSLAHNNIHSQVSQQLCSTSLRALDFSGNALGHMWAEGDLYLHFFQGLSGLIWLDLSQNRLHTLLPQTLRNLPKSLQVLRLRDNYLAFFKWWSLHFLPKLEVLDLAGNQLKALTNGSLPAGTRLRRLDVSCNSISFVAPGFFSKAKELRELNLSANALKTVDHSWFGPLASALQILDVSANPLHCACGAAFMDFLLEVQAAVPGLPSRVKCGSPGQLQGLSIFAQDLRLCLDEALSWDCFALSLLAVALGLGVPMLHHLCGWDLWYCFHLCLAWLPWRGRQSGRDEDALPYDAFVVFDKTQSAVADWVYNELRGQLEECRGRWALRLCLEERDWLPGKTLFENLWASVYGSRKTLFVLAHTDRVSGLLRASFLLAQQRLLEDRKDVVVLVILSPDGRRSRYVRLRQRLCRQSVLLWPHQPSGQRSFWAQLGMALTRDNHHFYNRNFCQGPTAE
Kind of assay: TLR9 inhibition reporter assay (HEK-Blue SEAP reporter, ODN2006 stimulation). The conditions noted are these: HEK-Blue cells overexpressing human TLR9, SEAP reporter, ODN2006 5 nM, 22 hour incubation. In a few lines:
(§1)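 Human TLR7/8/9 HEK-Blue reporter lines; dose range 0.05 nM–50 μM; 30 min RT preincubation; stimulus gardiquimod 7.5 μM / R848 15.9 μM / ODN2006 5 nM respectively; 22 h, 37 °C; SEAP detected colorimetrically.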
Background: A reporter such as luciferase makes a cellular process visible.

The next assay addresses T2, human TLR8 (Homo sapiens, UniProt Q9NR97).
T2 construct: host or cells: HEK-Blue cells
T2 sequence (Q9NR97 27-1041): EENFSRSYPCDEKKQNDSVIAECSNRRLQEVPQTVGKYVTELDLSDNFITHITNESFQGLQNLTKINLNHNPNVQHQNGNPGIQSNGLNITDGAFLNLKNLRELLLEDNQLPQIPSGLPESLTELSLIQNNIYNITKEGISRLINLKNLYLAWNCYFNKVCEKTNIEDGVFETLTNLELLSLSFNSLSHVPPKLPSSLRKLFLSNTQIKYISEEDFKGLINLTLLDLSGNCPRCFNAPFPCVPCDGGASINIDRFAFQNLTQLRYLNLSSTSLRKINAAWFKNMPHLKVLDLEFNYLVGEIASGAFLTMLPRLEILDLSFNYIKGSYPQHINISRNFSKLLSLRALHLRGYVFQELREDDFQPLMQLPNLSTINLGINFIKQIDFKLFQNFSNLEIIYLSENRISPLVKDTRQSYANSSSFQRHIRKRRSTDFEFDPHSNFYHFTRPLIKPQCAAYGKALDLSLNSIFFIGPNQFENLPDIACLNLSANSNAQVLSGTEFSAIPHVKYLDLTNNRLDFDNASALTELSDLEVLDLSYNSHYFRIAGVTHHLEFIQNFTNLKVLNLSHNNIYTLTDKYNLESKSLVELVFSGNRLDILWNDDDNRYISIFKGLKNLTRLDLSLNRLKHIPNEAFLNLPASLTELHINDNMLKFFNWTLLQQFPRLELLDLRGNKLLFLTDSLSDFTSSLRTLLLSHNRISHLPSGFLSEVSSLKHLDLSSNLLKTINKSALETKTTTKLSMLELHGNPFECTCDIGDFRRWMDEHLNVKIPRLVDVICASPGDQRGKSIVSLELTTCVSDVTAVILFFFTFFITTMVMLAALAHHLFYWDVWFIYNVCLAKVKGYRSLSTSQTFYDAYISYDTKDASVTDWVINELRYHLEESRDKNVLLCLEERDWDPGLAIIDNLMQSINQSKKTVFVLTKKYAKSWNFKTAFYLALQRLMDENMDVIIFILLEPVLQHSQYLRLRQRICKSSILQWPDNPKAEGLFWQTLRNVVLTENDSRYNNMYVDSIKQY
As to the kind of experiment: TLR8 inhibition reporter assay (HEK-Blue SEAP reporter, R848 stimulation). The conditions noted are these: HEK-Blue cells overexpressing human TLR8, SEAP reporter, R848 15.9 μM, 22 hour incubation. The gist of the method:
as §1

Another assay has as its target T3, human TLR7 (Homo sapiens, UniProt Q9NYK1).
T3 construct: host or cells: HEK-Blue cells
T3 sequence (Q9NYK1 27-1049): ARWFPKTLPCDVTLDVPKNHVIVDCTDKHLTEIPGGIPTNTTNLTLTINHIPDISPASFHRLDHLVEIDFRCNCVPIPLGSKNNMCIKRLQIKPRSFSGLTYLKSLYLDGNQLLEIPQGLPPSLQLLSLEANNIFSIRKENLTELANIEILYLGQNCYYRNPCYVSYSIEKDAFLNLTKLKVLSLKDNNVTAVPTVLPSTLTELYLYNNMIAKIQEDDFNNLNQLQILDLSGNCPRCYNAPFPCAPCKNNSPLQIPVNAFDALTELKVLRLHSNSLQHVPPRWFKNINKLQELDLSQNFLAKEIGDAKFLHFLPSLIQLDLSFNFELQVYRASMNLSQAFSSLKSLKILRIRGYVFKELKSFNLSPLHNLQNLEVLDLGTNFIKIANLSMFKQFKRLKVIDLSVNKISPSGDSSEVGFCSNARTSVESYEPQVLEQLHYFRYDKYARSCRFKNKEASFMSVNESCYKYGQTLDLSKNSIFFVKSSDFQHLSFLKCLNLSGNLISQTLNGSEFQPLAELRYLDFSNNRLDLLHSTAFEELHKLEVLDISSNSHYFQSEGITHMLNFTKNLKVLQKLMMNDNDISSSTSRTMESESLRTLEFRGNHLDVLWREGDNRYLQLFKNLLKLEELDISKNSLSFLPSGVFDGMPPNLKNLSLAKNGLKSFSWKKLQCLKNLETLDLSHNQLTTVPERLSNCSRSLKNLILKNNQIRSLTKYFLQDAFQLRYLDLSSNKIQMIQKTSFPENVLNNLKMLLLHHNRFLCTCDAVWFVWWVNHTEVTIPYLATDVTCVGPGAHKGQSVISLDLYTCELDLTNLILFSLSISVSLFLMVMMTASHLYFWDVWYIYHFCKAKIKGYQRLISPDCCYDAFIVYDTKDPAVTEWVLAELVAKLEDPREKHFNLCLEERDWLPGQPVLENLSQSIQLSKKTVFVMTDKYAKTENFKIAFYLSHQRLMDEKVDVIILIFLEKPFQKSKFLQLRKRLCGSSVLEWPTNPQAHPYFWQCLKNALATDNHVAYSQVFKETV
Kind of assay: TLR7 inhibition reporter assay (HEK-Blue SEAP reporter, gardiquimod stimulation). As to conditions: HEK-Blue cells overexpressing human TLR7, SEAP reporter, gardiquimod 7.5 μM, 22 hour incubation. In a few lines:
as §1

Bounds are passed on as bounds.

What is called IC50 is the concentration at which inhibition is half-maximal. Turning to `CCCN1CCC(c2ccc3[nH]c(-c4cn(C)c(=O)c(-c5cnn(C)c5)c4C)c(C(C)C)c3c2)CC1` [Example 333, 5-(3-isopropyl-5-(1-propylpiperidin-4-yl)-1H-indol-2-yl)-1,4-dimethyl-3-(1-methyl-1H-pyrazol-4-yl)pyridin-2(1H)-one], the IC50 against human TLR9 worked out at 3010 nM; at human TLR8 it was 11.1 nM; against human TLR7, 92.2 nM.
For `Cc1cc(-c2[nH]c3ccc(C4CCN(CC(=O)N(C)C)CC4)cc3c2C(C)C)cn(Cc2ccccc2)c1=O` [Example 164, 2-(4-(2-(1-benzyl-5-methyl-6-oxo-1,6-dihydropyridin-3-yl)-3-isopropyl-1H-indol-5-yl)piperidin-1-yl)-N,N-dimethylacetamide] the same measures were 2560 nM, 42.4 nM and 7 nM.
The corresponding values for `Cc1c(-c2[nH]c3ccc(C4CCN(CC(C)C)CC4)cc3c2C(C)C)cn(C)c(=O)c1Cl` [Example 106, 3-chloro-5-(5-(1-isobutylpiperidin-4-yl)-3-isopropyl-1H-indol-2-yl)-1,4-dimethylpyridin-2(1H)-one] are 1250 nM, 5.5 nM and 6.2 nM.
For `CN[C@H](C)C(=O)N1CCC(c2ccc3[nH]c(-c4cc(C)c(=O)n(C)c4)c(C(C)C)c3c2)CC1` [Example 299, 5-(3-isopropyl-5-(1-(methyl-D-alanyl)piperidin-4-yl)-1H-indol-2-yl)-1,3-dimethylpyridin-2(1H)-one] the same measures were 504 nM, 4.3 nM and 3.7 nM.
As for `COc1cc(-c2[nH]c3ccc(C4CCN(CC(C)(C)O)CC4)cc3c2C(C)C)c(C)n(C)c1=O` [Example 318, 5-(5-(1-(2-hydroxy-2-methylpropyl)piperidin-4-yl)-3-isopropyl-1H-indol-2-yl)-3-methoxy-1,6-dimethylpyridin-2(1H)-one], the IC50 against human TLR9 came to 3430 nM; at human TLR8, 22.3 nM; against human TLR7 it was 361 nM.
For `Cc1c(-c2[nH]c3ccc(C4CCN(C(=O)CN(C)C)CC4)cc3c2C(C)C)cn(C)c(=O)c1Cl` [Example 278, 3-chloro-5-(5-(1-(dimethylglycyl)piperidin-4-yl)-3-isopropyl-1H-indol-2-yl)-1,4-dimethylpyridin-2(1H)-one] the same measures were 3200 nM, 21 nM and 5.3 nM.
The corresponding values for `Cc1cc(-c2[nH]c3ccc(C4CCN(CC(=O)N5CCCC5)CC4)cc3c2C(C)C)cn(C)c1=O` [Example 122, 5-(3-isopropyl-5-(1-(2-oxo-2-(pyrrolidin-1-yl)ethyl)piperidin-4-yl)-1H-indol-2-yl)-1,3-dimethylpyridin-2(1H)-one] are 14700 nM, 15.7 nM and 4.9 nM.
For `Cc1nc(-c2[nH]c3ccc(C4CCN(C(C)C)CC4)cc3c2C(C)C)cn(C)c1=O` [Example 184, 5-(3-isopropyl-5-(1-isopropylpiperidin-4-yl)-1H-indol-2-yl)-1,3-dimethylpyrazin-2(1H)-one] the same measures were 2120 nM, 34.2 nM and 71.8 nM.
As for `Cc1cc(-c2[nH]c3ccc(C4CCNCC4)cc3c2C(C)C)cn(CCO)c1=O` [Example 30, 1-(2-hydroxyethyl)-5-(3-isopropyl-5-(piperidin-4-yl)-1H-indol-2-yl)-3-methylpyridin-2(1H)-one], the IC50 at human TLR9 is 2390 nM; against human TLR8, 10.1 nM; against human TLR7, 8.4 nM.
The corresponding values for `CC(C)CN1CCC(c2ccc3[nH]c(-c4cc(-c5ccccc5)c(=O)n(C)c4)c(C(C)C)c3c2)CC1` [Example 89, 5-(5-(1-isobutylpiperidin-4-yl)-3-isopropyl-1H-indol-2-yl)-1-methyl-3-phenylpyridin-2(1H)-one] are 1960 nM, 4.5 nM and 16.9 nM.
The corresponding values for `Cc1cc(-c2[nH]c3ccc(C4CCNCC4)cc3c2C(C)C)cn(CC(F)F)c1=O` [Example 40, 1-(2,2-difluoroethyl)-5-(3-isopropyl-5-(piperidin-4-yl)-1H-indol-2-yl)-3-methylpyridin-2(1H)-one] are 4450 nM, 16.9 nM and 5.2 nM.
In the case of `CCCN1CCC(c2ccc3[nH]c(-c4cc(-c5cnc(C(F)(F)F)nc5)c(=O)n(C)c4)c(C(C)C)c3c2)CC1` [Example 339, 5-(3-isopropyl-5-(1-propylpiperidin-4-yl)-1H-indol-2-yl)-1-methyl-3-(2-(trifluoromethyl)pyrimidin-5-yl) pyridin-2(1H)-one], the values for the IC50 against human TLR9, at human TLR8 and against human TLR7 were 1020 nM, 2140 nM and 28.9 nM, respectively.
As to `CC(C)c1c(-c2ccc(=O)n(CC(C)(C)O)c2)[nH]c2ccc(C3CCNCC3)cc12` [Example 48, 1-(2-hydroxy-2-methylpropyl)-5-(3-isopropyl-5-(piperidin-4-yl)-1H-indol-2-yl)pyridin-2(1H)-one], the figures for the IC50 at human TLR9, against human TLR8 and against human TLR7 were 1270 nM, ≥ 50000 nM and 13900 nM, respectively.

Source of the values: patent US11447466B2, “Substituted indole compounds useful as inhibitors of TLR7/8/9” (BRISTOL-MYERS SQUIBB COMPANY, priority 2017, dated 2022).
